Assay results from patent publication US10975068B2, “6-aminopyridin-3-yl thiazoles as modulators of RORγT” (Janssen Pharmaceutica NV, priority 2016, dated 2021).
Read-outs that look alike come from different tables or passages of the source.

Key:
[1] = biological target: human RORγt ligand binding domain (RORγt LBD) (Homo sapiens (Human), UniProt P51449); assay: RORγt ThermoFluor® assay (thermal shift binding); details: read-out: ThermoFluor® Assay, Kd
Outline: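 Binding was inferred from thermal stabilisation (ΔTm) of the E. coli-expressed RORγt LBD (0.065 mg/mL), monitored by 1,8-ANS (60 μM) emission at 500 nm during a 1 °C/min ramp. Buffer was Hepes 100 mM pH 7.0 with NaCl, GSH and Tween-20.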

[2] = biological target: full-length human RORγt (Homo sapiens (Human), UniProt P51449); assay: RORγt (full-length human) reporter assay, Conditions B or C; format: cell-based; details: for RORγt (FL) Reporter Assay B or C, % inhibition (value marked *): marked *: footnote not given; for inhibition at 3 µM: at 3 μM compound concentration; for inhibition at 6 µM: read-out: RORγt (FL) Reporter Assay B or C, % inhibition @ 6 μM, Conditions B or C
Chain of full-length human RORγt (P51449 other isoform, or with tags, fused parts or gaps): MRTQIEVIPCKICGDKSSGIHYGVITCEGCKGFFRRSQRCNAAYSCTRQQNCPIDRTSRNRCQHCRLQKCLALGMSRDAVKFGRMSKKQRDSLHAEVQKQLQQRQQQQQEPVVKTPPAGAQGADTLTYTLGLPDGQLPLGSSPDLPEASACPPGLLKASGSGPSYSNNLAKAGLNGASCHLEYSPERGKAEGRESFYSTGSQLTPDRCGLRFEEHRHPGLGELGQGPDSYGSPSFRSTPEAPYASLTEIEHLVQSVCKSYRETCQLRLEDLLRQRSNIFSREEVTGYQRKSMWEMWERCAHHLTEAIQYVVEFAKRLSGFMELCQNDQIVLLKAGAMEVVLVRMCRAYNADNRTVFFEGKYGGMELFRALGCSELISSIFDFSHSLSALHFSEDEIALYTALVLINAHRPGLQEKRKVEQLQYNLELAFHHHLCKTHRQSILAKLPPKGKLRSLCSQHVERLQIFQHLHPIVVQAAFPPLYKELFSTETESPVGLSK
Outline: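 Readout is dual luciferase: firefly (GAL4-driven) normalized to DMSO-only and saturating-reference controls, then to CMV-Renilla. Full-length human RORγt fused to GAL4-DBD was transiently expressed in HEK293T; compound exposure ran overnight (16-20 h) starting 4-6 h after transfection, final FBS 1.3%, DMSO 0.1%.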

[3] = Conditions B or C, read-out: RORγt (FL) Reporter Assay B or C, IC50
[4] = read-out: RORγt (FL) Reporter Assay B or C, % inhibition
[5] = read-out: RORγt (FL) Reporter Assay B or C, IC50

Chain of human RORγt ligand binding domain (RORγt LBD) (P51449 other isoform, or with tags, fused parts or gaps): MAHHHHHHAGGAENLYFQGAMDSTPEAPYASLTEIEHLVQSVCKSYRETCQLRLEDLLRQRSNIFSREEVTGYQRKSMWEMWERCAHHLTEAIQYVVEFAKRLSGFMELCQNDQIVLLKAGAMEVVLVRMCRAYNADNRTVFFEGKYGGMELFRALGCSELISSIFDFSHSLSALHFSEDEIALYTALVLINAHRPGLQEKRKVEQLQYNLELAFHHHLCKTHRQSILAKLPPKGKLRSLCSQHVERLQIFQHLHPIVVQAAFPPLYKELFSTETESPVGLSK

Row | Compound | Kd [1] | IC50 [2, 3] | inhibition at 3 µM [2, 4] | IC50 [2, 5] | further results
1 | C[C@H](Nc1cc(C(F)F)c(-c2sc(C(=O)N[C@H]3C[C@H](O)C3)nc2C(=O)N2CC(F)(F)C[C@@H]2C)cn1)C(F)(F)F [Example 191, 4-((S)-4,4-Difluoro-2-methylpyrrolidine-1-carbonyl)-5-(4-(difluoromethyl)-6-(((S)-1,1,1-trifluoropropan-2-yl)amino)pyridine-3-yl)-N-((1r,3S)-3-hydroxycyclobutyl)thiazole-2-carboxamide] | 18 nM | 0.032 µM | – | – | RORγt (FL) Reporter Assay B or C, % inhibition (value marked *) ([2]; Conditions B or C): 98* %
2 | C[C@H](Nc1cc(C(F)F)c(-c2sc(C(=O)N[C@H]3CC[C@H](O)C3)nc2C(=O)N2C3CCC2CC3)cn1)C(F)(F)F [Example 411, 4-((1s,4s)-7-Azabicyclo[2.2.1]heptane-7-carbonyl)-5-[4-(difluoromethyl)-6-[[(1S)-2,2,2-trifluoro-1-methyl-ethyl]amino]-3-pyridyl]-N-[(1S,3S)-3-hydroxycyclopentyl]thiazole-2-carboxamide] | 3.6 nM | – | 100% | 0.11 µM | –
3 | CC[C@H](Nc1cc(C(F)F)c(-c2sc(C(=O)N[C@@H]3COC[C@H]3O)nc2C(=O)N2CCC[C@@H]2C)cn1)C(F)(F)F [Example 220, 5-(4-(Difluoromethyl)-6-(((1S)-1-(trifluoromethyl)propyl)amino)-3-pyridyl)-N-((3R,4S)-4-hydroxytetrahydrofuran-3-yl)-4-((2S)-2-methylpyrrolidine-1-carbonyl)thiazole-2-carboxamide] | 6.1 nM | 0.013 µM | – | – | RORγt (FL) Reporter Assay B or C, % inhibition (value marked *****) ([2]; Conditions B or C, marked *****: footnote not shown): 111***** %
4 | C[C@H](Nc1cc(C(F)(F)F)c(-c2sc(C(=O)N[C@@H]3COC[C@H]3O)nc2C(=O)N2C3CCC2CC3)cn1)C(F)(F)F [Example 150, 4-((1s,4s)-7-Azabicyclo[2.2.1]heptane-7-carbonyl)-N-((3R,4S)-4-hydroxytetrahydrofuran-3-yl)-5-(4-(trifluoromethyl)-6-(((1S)-2,2,2-trifluoro-1-methyl-ethyl)amino)-3-pyridyl)thiazole-2-carboxamide] | 3.2 nM | – | – | – | RORγt (FL) Reporter Assay B or C, % inhibition (value marked *) ([2]; Conditions B or C): 111* %; IC50 ([2]; RORγt (FL) Reporter Assay B or C, IC50 (μM), Conditions B or C): 0.035 µM
5 | C[C@H]1CCCCN1C(=O)c1nc(C(=O)NCC(C)(C)O)sc1-c1cnc(NC2CCCCC2)cc1C(F)F [Example 34, (S)-5-(6-(Cyclohexylamino)-4-(difluoromethyl)pyridin-3-yl)-N-(2-hydroxy-2-methylpropyl)-4-(2-methylpiperidine-1-carbonyl)thiazole-2-carboxamide] | 0.29 nM | 0.0069 µM | – | – | inhibition at 6 µM [2]: 105%
6 | C[C@H](Nc1cc(C(F)F)c(-c2sc(C(=O)N[C@@H]3CC[C@@H](O)C3)nc2C(=O)N2C3CCC2CC3)cn1)C(F)(F)F [Example 438, 4-((1s,4s)-7-Azabicyclo[2.2.1]heptane-7-carbonyl)-5-[4-(difluoromethyl)-6-[[(1S)-2,2,2-trifluoro-1-methyl-ethyl]amino]-3-pyridyl]-N-[(1R,3R)-3-hydroxycyclopentyl]thiazole-2-carboxamide] | 4 nM | – | – | 0.083 µM | inhibition at 1 µM ([2]; at 1 μM compound concentration, read-out: RORγt (FL) Reporter Assay B or C, % inhibition): 99%
7 | C[C@H]1CCCN1C(=O)c1nc(C(=O)NCC(C)(C)O)sc1-c1cnc(NC2CCCC2)cc1C(F)F [Example 42, (S)-5-(6-(Cyclopentylamino)-4-(difluoromethyl)pyridin-3-yl)-N-(2-hydroxy-2-methylpropyl)-4-(2-methylpyrrolidine-1-carbonyl)thiazole-2-carboxamide] | 9.3 nM | 0.042 µM | – | – | inhibition at 6 µM [2]: 111%
8 | CC(C)(C)Nc1cc(C(F)F)c(-c2sc(C(=O)N[C@@H]3CCC[C@H]3O)nc2C(=O)N2C3CCC2CC3)cn1 [Example 434, 4-((1s,4s)-7-Azabicyclo[2.2.1]heptane-7-carbonyl)-5-[6-(tert-butylamino)-4-(difluoromethyl)-3-pyridyl]-N-[(1R,2R)-2-hydroxycyclopentyl]thiazole-2-carboxamide] | 0.63 nM | – | 103% | – | IC50 ([2]; RORγt (FL) Reporter Assay B or C, IC50): 0.011 µM
9 | CC[C@H](Nc1cc(C(F)F)c(-c2sc(C(=O)N[C@H]3C[C@H]3O)nc2C(=O)N2CCC[C@@H]2C)cn1)C(F)(F)F (relative stereo) [Example 212, 5-(4-(Difluoromethyl)-6-(((S)-1,1,1-trifluorobutan-2-yl)amino)pyridin-3-yl)-N-((1S*,2R*)-2-hydroxycyclopropyl)-4-((S)-2-methylpyrrolidine-1-carbonyl)thiazole-2-carboxamide] | 13 nM | 0.3 µM | – | – | RORγt (FL) Reporter Assay B or C, % inhibition (value marked *) ([2]; Conditions B or C): 104* %

Further lines, with some results ahead:

Row | Kd [1] | IC50 [2, 3] | inhibition at 3 µM [2, 4] | IC50 [2, 5] | Compound | further results
10 | 1.3 nM | 0.011 µM | – | – | CC[C@H](Nc1cc(C(F)F)c(-c2sc(C(=O)N[C@@H](C)C(C)(C)O)nc2C(=O)N2CC(F)(F)C[C@@H]2C)cn1)C(F)(F)F [Example 246, 4-[(2S)-4,4-Difluoro-2-methyl-pyrrolidine-1-carbonyl]-5-[4-(difluoromethyl)-6-[[(1S)-1-(trifluoromethyl)propyl]amino]-3-pyridyl]-N-[(1S)-2-hydroxy-1,2-dimethyl-propyl]thiazole-2-carboxamide] | RORγt (FL) Reporter Assay B or C, % inhibition (value marked ***) ([2]; Conditions B or C, marked ***: footnote not given): 112*** %
11 | 16 nM | – | 111% | 0.063 µM | C[C@H]1CCCN1C(=O)c1nc(C(=O)NC[C@@H](O)CO)sc1-c1cnc(NC(C)(C)C)cc1C(F)(F)F [Example 345, 5-[6-(tert-Butylamino)-4-(trifluoromethyl)-3-pyridyl]-N-[(2R)-2,3-dihydroxypropyl]-4-[(2S)-2-methylpyrrolidine-1-carbonyl]thiazole-2-carboxamide] | –
12 | 0.97 nM | – | 96% | 0.036 µM | C[C@H]1CCCN1C(=O)c1nc(C(=O)NCC(C)(C)O)sc1-c1cnc(NCC2(C(F)(F)F)CCC2)cc1C(F)F [Example 274, 5-[4-(Difluoromethyl)-6-[[1-(trifluoromethyl)cyclobutyl]methylamino]-3-pyridyl]-N-(2-hydroxy-2-methyl-propyl)-4-[(2S)-2-methylpyrrolidine-1-carbonyl]thiazole-2-carboxamide] | –
13 | 4.9 nM | – | 101% | 0.0082 µM | C[C@H]1CCCN1C(=O)c1nc(C(=O)N[C@H](C)C(C)(C)O)sc1-c1cnc(NC(C)(C)C)cc1C(F)F [Example 269, 5-[6-(tert-Butylamino)-4-(difluoromethyl)-3-pyridyl]-N-[(1R)-2-hydroxy-1,2-dimethyl-propyl]-4-[(2S)-2-methylpyrrolidine-1-carbonyl]thiazole-2-carboxamide] | –
14 | 40 nM | – | 103% | 0.034 µM | CC[C@H](Nc1cc(C(F)F)c(-c2sc(C(=O)N3CCOCC3)nc2C(=O)N2CCC[C@@H]2C)cn1)C(F)(F)F [Example 395, [5-[4-(Difluoromethyl)-6-[[(1S)-1-(trifluoromethyl)propyl]amino]-3-pyridyl]-2-(morpholine-4-carbonyl)thiazol-4-yl]-[(2S)-2-methylpyrrolidin-1-yl]methanone] | –
15 | 1.1 nM | – | 97% | 0.064 µM | C[C@H](Nc1cc(C(F)F)c(-c2sc(C(=O)N[C@H]3CC[C@H](O)C3)nc2C(=O)N2CC(F)(F)C[C@@H]2C)cn1)C(F)(F)F [Example 415, 4-[(2S)-4,4-Difluoro-2-methyl-pyrrolidine-1-carbonyl]-5-[4-(difluoromethyl)-6-[[(1S)-2,2,2-trifluoro-1-methyl-ethyl]amino]-3-pyridyl]-N-[(1S,3S)-3-hydroxycyclopentyl]thiazole-2-carboxamide] | –
